Data set [1] addresses SARS-CoV-2 PL^Pro (Severe acute respiratory syndrome coronavirus 2, UniProt P0DTD1). The data set is described as follows: Determination of IC50 values for SARS-CoV-2 PL^Pro (Z-RLRGG-AMC substrate). It counts as biochemical. The settings on record: 30 nM PL^Pro, 20 min preincubation; read-out: PL^Pro IC50.
Data set [2] deals with T1, SARS-CoV-2 M^Pro (Severe acute respiratory syndrome coronavirus 2, UniProt P0DTD1). The data set is described as follows: Determination of IC50 values for SARS-CoV-2 M^Pro (fluorogenic peptide substrate, end-point). It counts as biochemical. To be noted: 12.5 nM M^Pro, 20 min preincubation, 30 μM substrate; read-out: M^Pro IC50.
Data set [3] addresses T1, SARS-CoV-2 M^Pro. Kind of data set: Determination of KI values for SARS-CoV-2 M^Pro (initial velocity, competitive inhibition). The class given is biochemical. To be noted: competitive inhibition, initial velocity; read-out: M^Pro Ki.
For data set [4], the target named is T1, SARS-CoV-2 M^Pro. The data set is described as follows: Determination of kinact/KI values for SARS-CoV-2 M^Pro (time- and concentration-dependent inactivation). The class given is biochemical. The protocol:
where νo is the initial velocity of uninhibited reaction and νi is the initial velocity in the presence of inhibitor. All measurements were done in triplicate. Determination of kinact/KI values for SARS-CoV-2 M^Pro
Time- and concentration-dependent inactivation assays were done by following a similar protocol as described for Ki determination. M^Pro (12.5 nM final) was treated with the peptide-substrate (30 μM final) and test inhibitor (0-80 μM for D-FF(R/Cit)-(CMK/CMKyne); 0-1.25 mM for SM136-145) at time=0 to initiate inactivation process. The total volume of the assay mixture was 50 μL. Time-dependent increase in fluorescence was monitored at 485 nm with excitation at 340 nm for a period of 20-25 min. The observed rates (kobs) for the peptide cleavage in both the presence and absence of inhibitor were determined by fitting to a single-phase association equation. The resulting kobs values were plotted against the concentrations of inhibitor and linear fits were used to derive the slope that afforded the kinact/KI values. All measurements were done in triplicate.

The target of data set [5] is T2, Cathepsin B (Homo sapiens, UniProt P07858).
T2 construct: purchased Abcam ab185438
The data set is described as follows: Cathepsin B inhibition assay kit (Abcam), IC50. It counts as biochemical. The settings on record: 20 min pretreatment. As to the method:
(§1) Determination of IC50 and kinact/KI values for Cathepsins L and B
IC50 and kinact/KI values of the inhibitors were determined using commercially available inhibition assay kits (Abcam) by following the manufacturer's protocol. For IC50 values, enzymes were pretreated with test inhibitor (0-50 μM) for 20 min prior to adding the fluorogenic substrate, and end-point fluorescence was recorded after 30 min. For the kinact/KI values, enzymes were treated with inhibitor and substrate simultaneously and increase in fluorescence was monitored over 60 min. The observed rates (kobs) were determined by fitting to a single-phase association equation. The resulting kobs values were plotted against the concentrations of inhibitor and the data were fit to equation 2 to derive the kinact/KI values,
using GraphPad Prism, where kinact is the maximal rate of inactivation, KI is the concentration of inhibitor that affords half-maximal inactivation, and [I] is the concentration of inhibitor. When kobs with [I] varied linearly, kinact/KI was determined from the slope of the line. All the experiments were performed in triplicate. All fluorescence measurements were taken at absorption/emission wavelength of 400/505 nm using an EnVision 2105 plate reader. Crystallization of M^Pro in Complex with Inhibitors

Data set [6] has as its target T3, Cathepsin L (Homo sapiens, UniProt P07711).
T3 construct: purchased Abcam ab197012
Kind of data set: Cathepsin L inhibition assay kit (Abcam), IC50 and kinact/KI. To be noted: for IC50: 20 min pretreatment; for kinact/KI: read-out: Cathepsin L kinact/KI. It counts as biochemical. The protocol: as §1
IC50 and kinact/KI values of the inhibitors were determined using commercially available inhibition assay kits (Abcam) by following the manufacturer's protocol. […] The observed rates (kobs) were determined by fitting to a single-phase association equation. The resulting kobs values were plotted against the concentrations of inhibitor and the data were fit to equation 2 to derive the kinact/KI values,
using GraphPad Prism, where kinact is the maximal rate of inactivation, KI is the concentration of inhibitor that affords half-maximal inactivation, and [I] is the concentration of inhibitor. When kobs with [I] varied linearly, kinact/KI was determined from the slope of the line. All the experiments were performed in triplicate. […] Crystallization of M^Pro in Complex with Inhibitors

Data set [7] has as its system SARS-CoV-2. Kind of data set: microbe, parasite or virus in culture. It counts as cell-based. The settings on record: A549-hACE2 cells.
The conditions of data set [8]: data from medRxiv preprint; cited from earlier work.
The subject of data set [9] is CYP3A4/5. To be noted: data from medRxiv preprint; cited from earlier work.
Data set [10] has as its system A549-hACE2 cells. The settings on record: Table 2; data from medRxiv preprint; cited from earlier work.

Read-outs that look alike come from different tables or passages of the source. Where a SMILES comes first, the peptide text is derived from it. Bounds are passed on as bounds.

T3 sequence (P07711 114-333): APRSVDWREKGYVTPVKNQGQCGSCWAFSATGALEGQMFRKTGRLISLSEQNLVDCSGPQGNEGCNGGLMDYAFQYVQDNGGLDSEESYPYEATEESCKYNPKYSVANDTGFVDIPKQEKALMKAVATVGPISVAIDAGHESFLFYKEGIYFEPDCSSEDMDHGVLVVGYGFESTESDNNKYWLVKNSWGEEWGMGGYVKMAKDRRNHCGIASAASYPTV

For the compound `NC(=O)NCCC[C@H](NC(=O)[C@H](Cc1ccccc1)NC(=O)[C@H](N)Cc1ccccc1)C(=O)CCl` [D-FFCit-CMK] (HELM PEPTIDE1{[dF].F.[Cit].[ClC[*:1]]}$$$$V2.0), the IC50 in data set [1] is more than 50 µM; in data set [2] it was 0.13 µM.

Turning to `N=C(N)NCCC[C@H](NC(=O)[C@H](Cc1ccccc1)NC(=O)[C@H](N)Cc1ccccc1)C(=O)CCl` [D-FFR-CMK] (HELM PEPTIDE1{[dF].F.R.[ClC[*:1]]}$$$$V2.0), the IC50 came out at 5 µM in data set [1] and 0.1 µM in data set [2].

Take `CCOC(=O)C=CC(CC1CCNC1=O)NC(=O)C(Cc1ccc(F)cc1)NC(=O)C(Cc1ccccc1)NC(=O)OC(C)(C)C` (centres unmarked) [SM136]: in data set [3], the Ki stood at 73 µM. Also, the kinact/KI in data set [4] (read-out: M^Pro kinact/KI) is 12.8 M⁻¹ s⁻¹. The half-maximal inhibitory concentration (IC50) in data set [2] turned out to be 20 µM.

Take `CCOC(=O)C=CC(CC1CCNC1=O)NC(=O)C(Cc1ccc(F)cc1)NC(=O)C(N)Cc1ccccc1` (centres unmarked) [SM137]: the Ki in data set [3] was 50 µM. In addition, the kinact/KI in data set [4] (read-out: M^Pro kinact/KI) is 30 M⁻¹ s⁻¹. For the same compound, in data set [2], the IC50 worked out at 10 µM.

Consider `CCOC(=O)C=CC(CC1CCNC1=O)NC(=O)C(Cc1ccc(F)cc1)NC(=O)C(Cc1ccc(F)cc1)NC(=O)OC(C)(C)C` (centres unmarked) [SM138], for which the kinact/KI in data set [4] (read-out: M^Pro kinact/KI) stood at 10.8 M⁻¹ s⁻¹.

Consider `CCOC(=O)C=CC(CC1CCNC1=O)NC(=O)C(Cc1ccc(F)cc1)NC(=O)C(N)Cc1ccc(F)cc1` (centres unmarked) [SM139], for which, in [3], the inhibitory constant (Ki) is 65 µM. For the same compound, the kinact/KI in [4] (read-out: M^Pro kinact/KI) worked out at 25 M⁻¹ s⁻¹. The IC50 in data set [2] worked out at 10 µM.

Consider `CCOC(=O)C=CC(CC1CCNC1=O)NC(=O)C(Cc1ccccc1)NC(=O)C(Cc1ccccc1)NC(=O)OC(C)(C)C` (centres unmarked) [SM140], for which, in data set [3], the Ki stood at 16 µM. For the same compound, the IC50 was more than 50 µM in data set [1], more than 50 µM in data set [5] and 2.2 µM in data set [2]. Besides, the kinact/KI in data set [4] (read-out: M^Pro kinact/KI) came to 150 M⁻¹ s⁻¹.

In the case of `CCOC(=O)C=CC(CC1CCNC1=O)NC(=O)C(Cc1ccccc1)NC(=O)C(N)Cc1ccc(F)cc1` (centres unmarked) [SM143], the Ki in data set [3] amounted to 7 µM. For the same compound, the concentration for half-maximal inhibition (IC50) in [1] was more than 50 µM; in data set [6] it was 0.073 µM; in data set [5], more than 50 µM; in data set [2], 0.9 µM. The kinact/KI was 2330 M⁻¹ s⁻¹ in data set [6] and 350 M⁻¹ s⁻¹ in [4] (read-out: M^Pro kinact/KI).

Take `C#CCOCCC(=O)NC(Cc1ccccc1)C(=O)NC(Cc1ccccc1)C(=O)NC(C=CC(=O)OCC)CC1CCNC1=O` (centres unmarked) [SM145]: the Ki in data set [3] came out at 5.3 µM. Further, the IC50 was more than 50 µM in data set [1], 0.2 µM in data set [6], more than 50 µM in data set [5] and 0.8 µM in [2]. Moreover, the kinact/KI in data set [6] was determined as 417 M⁻¹ s⁻¹; in [4] (read-out: M^Pro kinact/KI), 400 M⁻¹ s⁻¹; in data set [4] (read-out: second-order rate constant for enzyme inactivation (kinact/KI), M^Pro), 400 M⁻¹ s⁻¹. In addition, the “antiviral activity compared with SM141 and SM142” value in [7] was “significantly lower antiviral activity than SM141 and SM142”.

`CC(C)(C)[C@H](NC(=O)C(F)(F)F)C(=O)N1C[C@H]2[C@@H]([C@H]1C(=O)N[C@H](C#N)C[C@@H]1CCNC1=O)C2(C)C` [nirmatrelvir]: in [8], the “Fa × Fg” value was 95%. Further, in data set [9], the CYP3A4/5 metabolism result is on record as “HIGH”. The cytoxcity in [10] is more than 3 µM.

By IC50 is commonly meant the concentration that gives 50% inhibition. Usually Ki stands for a dissociation constant, usually derived from enzyme kinetics or from competition with a known ligand.

Values taken from patent US20250326715A1, “NOVEL MAIN PROTEASE INHIBITORS, AND COMPOSITIONS AND METHODS THEREOF” (University of Massachusetts, priority 2023, published 2025).
